pIC50: −log10 of the molar value.
Molecular target: Recombinant full length human PFKFB3 (Homo sapiens, UniProt Q16875)
Assay: PFKFB3 kinase activity assay (ADP production, ADP-Glo)
Description: Recombinant full length human PFKFB3 (or PFKFB4) protein purified from Sf9 baculoviral system was acquired from SignalChem (Cat. #P323-30G or P324-30G). ATP, Fructose-6-Phosphate and other chemicals were from Sigma-Aldrich. The kinase activity of the PFKFB3 (PFKFB4) protein was detected by measuring production of ADP from ATP in the presence of the Fructose-6-Phosphate substrate. The kinase reactions were assembled in 384 well plates in a total volume of 25 μL. Test compounds were serially diluted in DMSO. Reactions were set up by first mixing test compounds with enzyme and pre-incubating for 15 min. The ATP and Fructose-6-Phosphate substrates were next added to initiate the kinase reactions.
The compounds of invention listed below in this example were tested at various concentrations (which also added 1% DMSO from compounds, to the final solution) as described below. The kinase reactions were allowed to proceed for 1 h at room temperature. Aliquots of the reaction mixtures (5 μL) were transferred to fresh white 384 well plates and mixed with 5 μL of the ADP-Glo reagent (Promega), followed by incubation for 30 min. The luminescent Kinase Detection reagent was added (10 μL) and, following additional incubation for 15 min, the plates were read on luminescence plate reader (Analyst HT). Positive (100%-inhibition) and negative (0%-inhibition) control samples were assembled in each assay plate and were used to calculate percent inhibition values of test compounds. All experiments were performed in duplicate.

Chain of Recombinant full length human PFKFB3 (Q16875 whole entry): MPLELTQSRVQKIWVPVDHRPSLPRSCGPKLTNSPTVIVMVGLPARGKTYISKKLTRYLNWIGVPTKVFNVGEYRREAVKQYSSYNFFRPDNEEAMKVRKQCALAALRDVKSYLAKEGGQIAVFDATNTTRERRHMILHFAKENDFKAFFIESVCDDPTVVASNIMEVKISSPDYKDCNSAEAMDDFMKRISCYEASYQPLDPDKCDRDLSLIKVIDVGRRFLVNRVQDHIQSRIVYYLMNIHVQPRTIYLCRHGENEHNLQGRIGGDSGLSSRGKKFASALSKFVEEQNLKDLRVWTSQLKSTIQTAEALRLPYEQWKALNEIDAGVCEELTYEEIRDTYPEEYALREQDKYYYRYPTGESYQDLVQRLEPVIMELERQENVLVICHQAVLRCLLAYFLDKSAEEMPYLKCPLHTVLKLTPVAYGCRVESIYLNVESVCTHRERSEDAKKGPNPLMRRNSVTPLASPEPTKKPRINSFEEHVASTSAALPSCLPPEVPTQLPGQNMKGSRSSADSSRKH

Row | Compound | pIC50
1 | O=C(O)c1ccc(C(=O)Nc2ncc([N+](=O)[O-])s2)c(C(=O)O)c1 [Example 38, 4-[(5-nitro-1,3-thiazol-2-yl)carbamoyl]benzene-1,3-dicarboxylic acid] | > 6.30
2 | O=C(O)c1ccc(-c2ccc(F)c(F)c2)cc1NC(=O)c1ccc(-c2cnn[nH]2)cc1C(=O)O [Example 22, 3-[2-carboxy-4-(1H-1,2,3-triazol-5-yl)benzamido]-3′,4′-difluoro-[1,1′-biphenyl]-4-carboxylic acid] | > 6.30
3 | O=C(O)c1ccc(C(=O)O)c(C(=O)Nc2cc(-c3ccc(F)cc3)ccc2C(=O)O)c1 [Example 1, 2-({4-carboxy-4′-fluoro-[1,1′-biphenyl]-3-yl}carbamoyl)benzene-1,4-dicarboxylic acid] | 5.70 to 6.30
4 | O=C(O)c1ccc2c(c1)C(=O)N(c1cc(-c3ccccc3)ccc1-c1nnn[nH]1)C2=O [Example 43] | 5.70 to 6.30
5 | Cc1oc(=O)oc1COC(=O)c1ccc(-c2ccc(F)c(F)c2)cc1N1Cc2ccc(-c3c[nH]nn3)cc2C1=O [Compound 116, 3′,4′-Difluoro-3-[1-oxo-6-(1H-[1,2,3]triazol-4-yl)-1,3-dihydro-isoindol-2-yl]-biphenyl-4-carboxylic acid (5-methyl-2-oxo-[1,3]dioxol-4-yl)methyl ester] | 4.70 to 5.30
6 | Cn1cncc1-c1ccc(N2C(=O)c3ccc(-c4c[nH]nn4)cc3C2=O)c(C(=O)O)c1 [Example 61] | 4.70 to 5.30
7 | O=C(O)c1ccc(-c2ccc(F)c(F)c2)cc1N1Cc2ccc(-c3c[nH]nn3)cc2C1=O [Compound 111, 3′,4′-Difluoro-3-[1-oxo-6-(1H-[1,2,3]triazol-4-yl)-1,3-dihydroisoindol-2-yl]biphenyl-4-carboxylic Acid] | > 6.30
8 | N#Cc1cc(-c2ccccc2)ccc1N1C(=O)c2ccc(C(=O)O)cc2C1=O [compound 145, 2-(3-cyanobiphenyl-4-yl)-1,3-dioxoisoindoline-5-carboxylic acid] | > 4.70
9 | CN(C)CCOC(=O)c1ccc(-c2ccc(Cl)cc2Cl)cc1NC(=O)c1ccc(C(=O)N=S(C)(C)=O)cc1C(=O)O [Example 49, 2-[(2′,4′-dichloro-4-{[2-(dimethylamino)ethoxy]carbonyl}-[1,1′-biphenyl]-3-yl)carbamoyl]-5-{[dimethyl(oxo)-λ^6-sulfanylidene]carbamoyl}benzoic acid] | > 6.30
10 | O=C(O)c1ccc(C(=O)O)c(C(=O)Nc2ncc([N+](=O)[O-])s2)c1 [Example 39, 2-[(5-nitro-1,3-thiazol-2-yl)carbamoyl]benzene-1,4-dicarboxylic acid] | 5.70 to 6.30
11 | NC(=O)c1ccc(-c2ccccc2)cc1N1C(=O)c2ccc(-c3nnn[nH]3)cc2C1=O [Compound 98, 3-[1,3-Dioxo-5-(1H-tetrazol-5-yl)-1,3-dihydroisoindol-2-yl]biphenyl-4-carboxylic acid amide] | 5.30 to 5.70
12 | O=C(O)c1ccc(-c2ccccc2)cc1N1Cc2ccc(-c3c[nH]nn3)cc2C1=O [Compound 92, 3-[1-Oxo-6-(1H-[1,2,3]triazol-4-yl)-1,3-dihydroisoindol-2-yl]biphenyl-4-carboxylic Acid] | 5.30 to 5.70
13 | O=C1c2ccc(-c3c[nH]nn3)cc2C(=O)N1c1cc(-c2ccc(F)cc2)c(-c2ccccc2)cn1 [compound 146, 2-(4-(4-fluorophenyl)-5-phenylpyridin-2-yl)-5-(1H-1,2,3-triazol-4-yl)isoindoline-1,3-dione] | > 4.70
14 | COc1ccc(-c2c(C)sc(NC(=O)c3cc(C(=O)O)ccc3C(=O)O)c2C#N)cc1 [Example 29, 2-{[3-cyano-4-(4-methoxyphenyl)-5-methylthiophen-2-yl]carbamoyl}benzene-1,4-dicarboxylic acid] | 4.70 to 5.30
15 | O=C(NS(=O)(=O)c1ccccc1)c1ccc2c(c1)C(=O)N(c1ccc(-c3ccccc3)cc1-c1nnn[nH]1)C2=O [Compound 135, N-(Benzenesulfonyl)-2-(3-(1H-tetrazol-5-yl)-[1,1′-biphenyl]-4-yl)-1,3-dioxo-2,3-dihydro-1H-isoindole-5-carboxamide] | 4.70 to 5.30
16 | CN(C)CCOC(=O)c1cc(-c2ccccc2)ccc1N1C(=O)c2ccc(-c3c[nH]nn3)cc2C1=O [Compound 78, 4-[1,3-Dioxo-5-(1H-[1,2,3]triazol-4-yl)-1,3-dihydroisoindol-2-yl]biphenyl-3-carboxylic acid 2-dimethylamino-ethyl ester] | 4.70 to 5.30
17 | O=C(O)c1cc(-c2c[nH]cn2)ccc1N1C(=O)c2ccc(-c3c[nH]nn3)cc2C1=O [Example 60] | > 6.30
18 | CNCCOC(=O)c1cc(-c2ccccc2)ccc1N1C(=O)c2ccc(-c3c[nH]nn3)cc2C1=O [Compound 81, 4-[1,3-Dioxo-5-(1H-[1,2,3]triazol-4-yl)-1,3-dihydroisoindol-2-yl]biphenyl-3-carboxylic acid 2-methylamino-ethyl ester] | > 4.70
19 | O=C(Nc1cc(Cl)c(-c2c[nH]nn2)cc1C(=O)O)c1cccc(-c2ccccc2)c1 [Example 18, 2-([1,1′-biphenyl]-3-carboxamido)-4-chloro-5-(1H-1,2,3-triazol-5-yl)benzoic acid] | 4.70 to 5.30

Row | Compound | pIC50
20 | O=C(O)c1ccc(-c2cccs2)cc1N1C(=O)c2ccc(-c3c[nH]nn3)cc2C1=O [Example 56] | 5.30 to 5.70
21 | COC(=O)c1cc(-c2ccccc2)c(OC)cc1N1C(=O)c2ccc(C(=O)O)cc2C1=O [Example 42] | 5.70 to 6.30
22 | O=C(O)c1cc(C(=O)Nc2cc(N3CC4CCC3C4)ccc2C(=O)O)c(C(=O)O)cc1O (stereo not shown) [Example 61, 2-[(5-{2-azabicyclo[2.2.1]heptan-2-yl}-2-carboxyphenyl)carbamoyl]-5-hydroxybenzene-1,4-dicarboxylic acid] | > 6.30
23 | O=C(O)c1ccc(-c2ccc(F)c(F)c2)cc1N1Cc2ccc(CO)cc2C1=O [compound 158, 3′,4′-difluoro-3-(6-(hydroxymethyl)-1-oxoisoindolin-2-yl)biphenyl-4-carboxylic acid] | 4.70 to 5.30
24 | O=C(O)c1cc(-c2ccccc2)ccc1N1C(=O)c2ccc(-c3nnn[nH]3)cc2C1=O [Compound 94, 4-[1,3-Dioxo-5-(1H-tetrazol-5-yl)-1,3-dihydroisoindol-2-yl]biphenyl-3-carboxylic Acid] | > 6.30
25 | O=C(O)c1cc(C(=O)Nc2cc(-c3ccc(Cl)cc3Cl)ccc2C(=O)O)c(C(=O)O)cc1O [Example 44, 2-({4-carboxy-2′,4′-dichloro-[1,1′-biphenyl]-3-yl}carbamoyl)-5-hydroxybenzene-1,4-dicarboxylic acid] | > 6.30
26 | CS(=O)(=O)NC(=O)c1ccc2c(c1)C(=O)N(c1cc(-c3ccccc3)ccc1C(=O)O)C2=O [Example 25, 3-(5-Methanesulfonylaminocarbonyl-1,3-dioxo-1,3-dihydroisoindol-2-yl)biphenyl-4-carboxylic Acid] | > 6.30
27 | O=C(O)c1cc(Cl)c(-c2cnn[nH]2)cc1NC(=O)c1cc(-c2ccc(F)c(F)c2)ccc1C(=O)O [Example 20, 3-((2-carboxy-4-chloro-5-(1H-1,2,3-triazol-5-yl)phenyl)carbamoyl)-3′,4′-difluoro-[1,1′-biphenyl]-4-carboxylic acid] | 5.30 to 5.70
28 | NC(=O)c1[nH]nnc1-c1ccc2c(c1)C(=O)N(c1cc(-c3ccc(F)c(F)c3)ccc1C(=O)O)C2 [compound 164, 3-(6-(5-carbamoyl-1H-1,2,3-triazol-4-yl)-1-oxoisoindolin-2-yl)-3′,4′-difluorobiphenyl-4-carboxylic acid] | 5.30 to 5.70
29 | CN(C)CCCOC(=O)c1ccc(-c2ccc(Cl)cc2Cl)cc1NC(=O)c1cc(C(=O)O)c(O)cc1C(=O)O [Example 54, 2-[(2′,4′-dichloro-4-{[3-(dimethylamino)propoxy]carbonyl}-[1,1′-biphenyl]-3-yl)carbamoyl]-5-hydroxybenzene-1,4-dicarboxylic acid] | > 6.30
30 | NC(=O)c1ccc(-c2ccc(F)c(F)c2)cc1N1Cc2ccc(-c3nnn[nH]3)cc2C1=O [Compound 101, 3′,4′-Difluoro-3-[1-oxo-6-(1H-tetrazol-5-yl)-1,3-dihydroisoindol-2-yl]biphenyl-4-carboxylic acid amide] | 4.70 to 5.30
31 | NS(=O)(=O)c1ccc(-c2ccccc2)cc1N1C(=O)c2ccc(-c3c[nH]nn3)cc2C1=O [compound 148, 3-(1,3-dioxo-5-(1H-1,2,3-triazol-4-yl)isoindolin-2-yl)biphenyl-4-sulfonamide] | > 4.70
32 | CS(=O)(=O)NC(=O)c1ccc2c(c1)C(=O)N(c1cc(-c3ccc(F)c(F)c3)ccc1C(=O)OCCN1CCCC1)C2 [Compound 109, 3′,4′-Difluoro-3-(6-methanesulfonylaminocarbonyl-1-oxo-1,3-dihydroisoindol-2-yl)biphenyl-4-carboxylic acid 2-pyrrolidin-1-yl-ethyl ester] | > 4.70
33 | CN(C)CCOC(=O)c1ccc(-c2ccc(F)c(F)c2)cc1N1Cc2ccc(C(=O)NS(C)(=O)=O)cc2C1=O [Compound 108, 3′,4′-Difluoro-3-(6-methanesulfonylaminocarbonyl-1-oxo-1,3-dihydroisoindol-2-yl)biphenyl-4-carboxylic acid 2-dimethylamino-ethyl ester] | > 4.70
34 | O=C(O)c1ccc(-c2ccc(F)c(F)c2)cc1N1Cc2ccc(-c3nnn[nH]3)cc2C1=O [Compound 100, 3′,4′-Difluoro-3-[1-oxo-6-(1H-tetrazol-5-yl)-1,3-dihydroisoindol-2-yl]biphenyl-4-carboxylic Acid] | 5.70 to 6.30
35 | CC(=O)Nc1ccc2c(c1)C(=O)N(c1cc(-c3ccc(F)c(F)c3)ccc1C(=O)O)C2 [Compound 130, 3-(6-Acetylamino-1-oxo-1,3-dihydroisoindol-2-yl)-3′,4′-difluoro-biphenyl-4-carboxylic Acid] | > 4.70
36 | CN(C)CCOC(=O)c1ccc(-c2ccccc2)cc1N1C(=O)c2ccc(-c3nnn[nH]3)cc2C1=O [Compound 97, 3-[1,3-Dioxo-5-(1H-tetrazol-5-yl)-1,3-dihydroisoindol-2-yl]biphenyl-4-carboxylic acid 2-dimethylamino-ethyl ester] | > 6.30
37 | CN(C)CCOC(=O)c1ccc(-c2ccc(F)c(F)c2)cc1N1Cc2ccc(-c3c[nH]nn3)cc2C1=O [Compound 112, 3′,4′-Difluoro-3-[1-oxo-6-(1H-[1,2,3]triazol-4-yl)-1,3-dihydroisoindol-2-yl]biphenyl-4-carboxylic acid 2-dimethylamino-ethyl ester] | > 4.70

Source: US20230047816A1 (priority 2018, published 2023)
